Test results from publication PMC4186383, “Evaluation of radical scavenging properties of shikonin” (Journal of Clinical Biochemistry and Nutrition, 2014).
pIC50: −log10 of the molar value.

Key:
[1] = target: T1, Nox2 (NADPH oxidase 2, flavocytochrome b558) (Sus scrofa, UniProt P52649); experiment: cell-free reconstitution assay, SOD-sensitive cytochrome c reduction; type: biochemical
T1 construct: gene CYBB; detergent-solubilized resting neutrophil membranes (1 pmol Nox2/flavocytochrome b558) plus cytosol; with cytosolic components of the Nox2 system

[2] = target: T1, Nox2 (NADPH oxidase 2, flavocytochrome b558); experiment: cell-free reconstitution assay, NADPH oxidation; type: biochemical

SMILES	pIC50 [1]	pIC50 [2]
CC(C)=CC[C@H](O)C1=CC(=O)c2c(O)ccc(O)c2C1=O [alkannin]	5.66	–
CC(C)=CC[C@@H](O)C1=CC(=O)c2c(O)ccc(O)c2C1=O [shikonin]	–	5.96
